Activity calls are given as the source filed them.
What was measured:
[1] = P. falciparum late gametocyte killing, dose response, luminescence (AID 1117278); format: functional, cell-based;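 further: gametocytes exposed to compound for 24 hours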
[2] = Jurkat T cell cytotoxicity, dose response, cytotoxicity control for P. falciparum gametocyte viability project, luminescence (AID 1117277); format: functional, cell-based;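 further: potency reflects loss of cellular ATP meaning fewer viable cells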
[3] = inhibitors of intracellular T. cruzi replication, confirmation, NIH3T3 host cells, beta-gal luminescence (AID 2044); format: functional, cell-based;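 further: intracellular parasites grown in NIH/3T3 mouse fibroblasts as host cells; luminescent beta-galactosidase reporter signal from transgenic T. cruzi replicating inside host cells; inhibitors lower the luminescence signal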
[4] = cytotoxicity toward NIH3T3 fibroblasts, dose response, counter-screen, cell-based, ATP luminescence, mouse fibroblasts (AID 2010); format: functional;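 further: cells exposed to compound for about 90 hours before reading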
[5] = target: T1, Low molecular weight phosphotyrosine protein phosphatase (Homo sapiens, UniProt P24666); experiment: LMPTP phosphatase inhibitors, dose response, biochemical, OMFP substrate, fluorescence intensity, set 2 (AID 743307); format: functional
T1 sequence (P24666 whole entry): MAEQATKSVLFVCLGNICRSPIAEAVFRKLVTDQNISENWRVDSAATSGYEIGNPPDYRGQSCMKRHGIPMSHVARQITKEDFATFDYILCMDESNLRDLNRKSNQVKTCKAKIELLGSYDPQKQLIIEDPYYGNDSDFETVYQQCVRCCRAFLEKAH

[6] = target: T1, Low molecular weight phosphotyrosine protein phosphatase; experiment: LMPTP phosphatase inhibitors, colorimetric pNPP readout, dose response, orthogonal assay, biochemical, absorbance, pNPP substrate, LMPTP-A isoform, set 2 (AID 743308); format: functional
[7] = target: Voltage-gated inwardly rectifying potassium channel KCNH2 (Homo sapiens, UniProt Q12809); experiment: hERG protection from proarrhythmic block, potency, dose response, cell-based, thallium flux (AID 2121); format: ADME
Sequence of Voltage-gated inwardly rectifying potassium channel KCNH2 (Q12809 whole entry): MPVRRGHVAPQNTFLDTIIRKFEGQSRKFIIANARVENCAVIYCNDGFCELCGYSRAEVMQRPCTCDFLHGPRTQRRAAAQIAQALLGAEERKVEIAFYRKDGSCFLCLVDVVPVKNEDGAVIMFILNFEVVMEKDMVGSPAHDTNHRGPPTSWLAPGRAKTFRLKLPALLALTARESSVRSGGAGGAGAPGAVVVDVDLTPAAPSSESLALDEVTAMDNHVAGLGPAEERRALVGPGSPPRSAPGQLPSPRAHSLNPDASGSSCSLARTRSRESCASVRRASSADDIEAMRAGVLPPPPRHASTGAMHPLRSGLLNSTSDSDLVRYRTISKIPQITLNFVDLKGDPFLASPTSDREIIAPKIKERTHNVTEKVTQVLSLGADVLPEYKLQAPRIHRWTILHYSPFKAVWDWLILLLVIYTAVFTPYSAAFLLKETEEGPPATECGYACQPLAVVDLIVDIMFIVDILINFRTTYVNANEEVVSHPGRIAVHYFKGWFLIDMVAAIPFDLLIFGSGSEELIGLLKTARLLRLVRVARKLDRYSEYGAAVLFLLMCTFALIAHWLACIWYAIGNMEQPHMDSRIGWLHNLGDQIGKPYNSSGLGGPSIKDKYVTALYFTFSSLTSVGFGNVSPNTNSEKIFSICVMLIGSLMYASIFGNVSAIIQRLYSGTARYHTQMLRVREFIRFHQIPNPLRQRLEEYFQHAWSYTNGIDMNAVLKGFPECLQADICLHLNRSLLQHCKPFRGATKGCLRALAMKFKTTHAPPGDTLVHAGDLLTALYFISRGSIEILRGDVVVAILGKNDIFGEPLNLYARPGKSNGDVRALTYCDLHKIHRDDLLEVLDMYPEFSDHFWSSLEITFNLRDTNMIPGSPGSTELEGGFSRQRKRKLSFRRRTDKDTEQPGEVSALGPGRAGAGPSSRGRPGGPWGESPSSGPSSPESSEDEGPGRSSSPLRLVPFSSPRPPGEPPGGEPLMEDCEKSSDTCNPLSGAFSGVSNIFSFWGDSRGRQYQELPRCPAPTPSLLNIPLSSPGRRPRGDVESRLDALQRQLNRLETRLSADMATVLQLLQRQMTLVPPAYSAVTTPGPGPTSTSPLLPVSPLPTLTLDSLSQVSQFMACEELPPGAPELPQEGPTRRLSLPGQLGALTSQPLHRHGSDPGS

Row | IC50 [5] | IC50 [6] | SMILES | IC50 [1] | IC50 [2] | further results
1 | – | – | CC(C)CSc1oc(-c2ccco2)nc1S(=O)(=O)c1ccccc1 | > 109 µM (inactive) | > 83.3 µM (inactive) | –
2 | – | – | Cc1cc2nc3n(c2cc1C)CCCN3 | – | – | EC50 [3]: < 0.1 µM (active); EC50 [4]: > 60 µM (not active); EC50 (cells): 0.121 µM (active)
3 | 14.5 µM (active) | 58.5 µM (inactive) | CC(C)CNc1nc(-c2ccccc2)nc2ccccc12 | – | – | –
4 | 1.12 µM (active) | 1.85 µM (active) | Clc1cccc(-c2cc(NCCCN3CCCCC3)c3ccccc3n2)c1 | – | – | –
5 | – | – | O=C(NC(=S)Nc1cc(C(F)(F)F)ccc1N1CCOCC1)c1ccco1 | – | – | EC50 [7]: 4.72 µM (active)
6 | – | – | O=C(Nc1ccc(S(=O)(=O)N2CCCC2)cc1)C1CC(=O)N(c2ccccc2)C1 (configuration not stated) | > 109 µM (inactive) | > 83.3 µM (inactive) | –
